This passage reports IC50 results from patent US20240327412A1, “FACTOR XIIA INHIBITORS” (KALVISTA PHARMACEUTICALS LIMITED, priority 2021, published 2024).

One may read the IC50 as the concentration that gives 50% inhibition.

The experiment has as its target T1, Human Factor XIIa (Homo sapiens, UniProt P00748).
T1 construct: Proteolytic cleavage of FXII to heavy and light chains of FXIIa dramatically increases catalytic activity; purchased Enzyme Research Laboratories
T1 sequence (P00748 373-615 limits assumed): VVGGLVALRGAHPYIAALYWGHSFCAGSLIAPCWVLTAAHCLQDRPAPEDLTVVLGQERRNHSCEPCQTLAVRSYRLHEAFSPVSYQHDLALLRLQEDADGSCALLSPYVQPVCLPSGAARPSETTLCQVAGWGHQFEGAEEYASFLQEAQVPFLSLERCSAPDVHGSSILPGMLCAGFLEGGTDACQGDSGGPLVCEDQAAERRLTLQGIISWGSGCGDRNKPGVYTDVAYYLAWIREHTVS
T1 sequence (P00748 20-372 partner limits assumed): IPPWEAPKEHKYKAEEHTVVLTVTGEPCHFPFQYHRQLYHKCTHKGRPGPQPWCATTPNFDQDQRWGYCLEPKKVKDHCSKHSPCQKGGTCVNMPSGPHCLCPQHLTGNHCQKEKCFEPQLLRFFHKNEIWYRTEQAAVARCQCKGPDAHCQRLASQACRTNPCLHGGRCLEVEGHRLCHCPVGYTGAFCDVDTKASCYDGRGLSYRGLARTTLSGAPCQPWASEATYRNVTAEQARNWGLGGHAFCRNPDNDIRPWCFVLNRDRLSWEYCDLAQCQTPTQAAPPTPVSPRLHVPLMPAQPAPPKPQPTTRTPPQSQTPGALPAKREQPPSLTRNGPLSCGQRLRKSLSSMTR
Briefly: Determination of FXIIa inhibition (fluorogenic substrate H-DPro-Phe-Arg-AFC, IC50 assay). As to conditions: substrate at Km concentration, 25° C.; category scale; read-out: Human FXII IC50 (nm). Format: biochemical. As for the experimental part: In vitro inhibition of Factor XIIa was determined using an IC50 assay based on standard literature methods (see e.g Baeriswyl et al., ACS Chem. Biol., 2015, 10 (8) 1861; Bouckaert et al., European Journal of Medicinal Chemistry 110 (2016) 181). Human Factor XIIa (Enzyme Research Laboratories) was incubated at 25° C. with the fluorogenic substrate H-DPro-Phe-Arg-AFC (Peptide Protein Science) and various concentrations of the test compound. Protease activity was measured by monitoring the accumulation of liberated fluorescence from the substrate over 5 min at 25° C. The linear rate of fluorescence increase per minute was expressed as percentage (%) activity. The Km for the cleavage of the substrate by FXIIa was determined by standard transformation of the Michaelis-Menten equation. The compound inhibitor assays were performed at substrate Km concentration. IC50 values were calculated as the concentration of inhibitor giving 50% inhibition (IC50) of the uninhibited enzyme activity (100%).
For `Cc1nccc(OCC23CCOC(CNc4cccc5c(N)nccc45)(C2)C3)n1` [Example 10974, N5-((5-(((2-methylpyrimidin-4-yl)oxy)methyl)-2-oxabicyclo[3.1.1]heptan-1-yl)methyl)isoquinoline-1,5-diamine], the IC50 fell in the range of 3000 to 10000 nM.

Regarding `Nc1nccc2c(NCC34CC(COc5ccncn5)(CCO3)C4)cccc12` [Example 10937, N5-((5-((pyrimidin-4-yloxy)methyl)-2-oxabicyclo[3.1.1]heptan-1-yl)methyl)isoquinoline-1,5-diamine], the IC50 was 3000 to 10000 nM.

Consider `Cn1ccc(OCC23CN(S(=O)(=O)CCc4ccccc4)C(CNc4cccc5c(N)nccc45)(C2)C3)cc1=O` [Example 12014, 4-[[1-[[(1-aminoisoquinolin-5-yl)amino]methyl]-2-(2-phenylethylsulfonyl)-2-azabicyclo[2.1.1]hexan-4-yl]methoxy]-1-methylpyridin-2-one], for which the IC50 lay in the range of 10 to 100 nM.

For the compound `Nc1nccc2c(NCC34CC(COc5ccc6c(c5)CNC6=O)(CCO3)C4)cccc12` [Example 10931, 5-((1-(((1-aminoisoquinolin-5-yl)amino)methyl)-2-oxabicyclo[3.1.1]heptan-5-yl)methoxy)isoindolin-1-one], the concentration for half-maximal inhibition (IC50) lay in the range of 10 to 100 nM.

As to `Cn1c(C(F)(F)F)cc(OCC23CCOC(CNc4cccc5c(N)nccc45)(C2)C3)cc1=O` [Example 10951, 4-((1-(((1-aminoisoquinolin-5-yl)amino)methyl)-2-oxabicyclo[3.1.1]heptan-5-yl)methoxy)-1-methyl-6-(trifluoromethyl)pyridin-2(1H)-one], the IC50 lay within 300 to 1000 nM.

As for `Nc1nccc2c(NCC34CC(COc5ccc6c(c5)C(=O)NC6=O)(CO3)C4)cccc12` [Example 6636, 5-((1-(((1-aminoisoquinolin-5-yl)amino)methyl)-2-oxabicyclo[2.1.1]hexan-4-yl)methoxy)isoindoline-1,3-dione], the IC50 lay in the range of 3000 to 10000 nM.

Take `Cn1ccc(OCC23CC(CNc4cccc5c(N)nccc45)(CN2C(=O)Cc2ccccc2)C3)cc1=O` [Example 13021, 4-((4-(((1-aminoisoquinolin-5-yl)amino)methyl)-2-(2-phenylacetyl)-2-azabicyclo[2.1.1]hexan-1-yl)methoxy)-1-methylpyridin-2(1H)-one]: the IC50 is 300 to 1000 nM.

For `Cn1ccc(OCC23CC(CNc4cccc5c(N)nccc45)(CN2C(=O)CCc2ccccn2)C3)cc1=O` [Example 13016, 4-((4-(((1-aminoisoquinolin-5-yl)amino)methyl)-2-(3-(pyridin-2-yl)propanoyl)-2-azabicyclo[2.1.1]hexan-1-yl)methoxy)-1-methylpyridin-2(1H)-one], the IC50 fell in the range of 300 to 1000 nM.

As for `Nc1nccc2c(NCC34CC(COc5ccc6c(c5)CCNC6=O)(CCO3)C4)cccc12` [Example 10938, 6-((1-(((1-aminoisoquinolin-5-yl)amino)methyl)-2-oxabicyclo[3.1.1]heptan-5-yl)methoxy)-3,4-dihydroisoquinolin-1(2H)-one], the IC50 lay in the range of 300 to 1000 nM.

Consider `Nc1nccc2c(NCC34CC(COc5cccc(N6CCCC6=O)c5)(CO3)C4)cccc12` [Example 6653, 1-(3-((1-(((1-aminoisoquinolin-5-yl)amino)methyl)-2-oxabicyclo[2.1.1]hexan-4-yl)methoxy)phenyl)pyrrolidin-2-one], for which the IC50 fell in the range of 300 to 1000 nM.

Take `CC(C)n1ccc(OCC23CCOC(CNc4cccc5c(N)nccc45)(C2)C3)cc1=O` [Example 10934, 4-((1-(((1-aminoisoquinolin-5-yl)amino)methyl)-2-oxabicyclo[3.1.1]heptan-5-yl)methoxy)-1-isopropylpyridin-2(1H)-one]: the IC50 is 300 to 1000 nM.

For `Cc1cnc2ccc(OCC34COC(CNc5cccnc5)(C3)C4)cn12` [Example 6661, N-((4-(((3-methylimidazo[1,2-a]pyridin-6-yl)oxy)methyl)-2-oxabicyclo[2.1.1]hexan-1-yl)methyl)pyridin-3-amine], the IC50 was 10000 to 40000 nM.

Regarding `Cn1cc(COC(=O)N2CC3(COc4ccn(C)c(=O)c4)CC2(CNc2cccc4c(N)nccc24)C3)cn1` [Example 12026, (1-methyl-1H-pyrazol-4-yl)methyl 1-(((1-aminoisoquinolin-5-yl)amino)methyl)-4-(((1-methyl-2-oxo-1,2-dihydropyridin-4-yl)oxy)methyl)-2-azabicyclo[2.1.1]hexane-2-carboxylate], the IC50 lay in the range of 100 to 300 nM.

`Cn1ccc(OCC23CC(CNc4cccc5c(N)nccc45)(CN2C(=O)Oc2ccccc2Cl)C3)cc1=O` [Example 13004, 2-chlorophenyl 4-(((1-aminoisoquinolin-5-yl)amino)methyl)-1-(((1-methyl-2-oxo-1,2-dihydropyridin-4-yl)oxy)methyl)-2-azabicyclo[2.1.1]hexane-2-carboxylate]: the IC50 was in the range of 100 to 300 nM.

For the compound `Cn1ccc(OCC23CN(c4ncc(-c5ccccc5)cn4)C(CNc4cccc5c(N)nccc45)(C2)C3)cc1=O` [Example 12060, 4-((1-(((1-Aminoisoquinolin-5-yl)amino)methyl)-2-(5-phenylpyrimidin-2-yl)-2-azabicyclo[2.1.1]hexan-4-yl)methoxy)-1-methylpyridin-2(1H)-one], the half-maximal inhibitory concentration (IC50) fell in the range of 1 to 10 nM.

As to `Cn1ccc(OCC23CC(CNc4cccc5c(N)nccc45)(CN2CCCc2ccccc2)C3)cc1=O` [Example 13015, 4-((4-(((1-aminoisoquinolin-5-yl)amino)methyl)-2-(3-phenylpropyl)-2-azabicyclo[2.1.1]hexan-1-yl)methoxy)-1-methylpyridin-2(1H)-one], the IC50 was in the range of 100 to 300 nM.

As to `Nc1nccc2c(NCC34CC(CN5C(=O)c6ccc(O)cc6C5=O)(CO3)C4)cccc12` [Example 6635, 2-((1-(((1-aminoisoquinolin-5-yl)amino)methyl)-2-oxabicyclo[2.1.1]hexan-4-yl)methyl)-5-hydroxyisoindoline-1,3-dione], the IC50 was 10000 to 40000 nM.

Turning to `Cn1nncc1OCC12CCOC(CNc3cccc4c(N)nccc34)(C1)C2` [Example 10946, N5-((5-(((1-methyl-1H-1,2,3-triazol-5-yl)oxy)methyl)-2-oxabicyclo[3.1.1]heptan-1-yl)methyl)isoquinoline-1,5-diamine], the IC50 is 3000 to 10000 nM.

For the compound `Nc1nccc2c(NCC34CC(COc5ccc6c(c5)C(=O)NC6)(CCO3)C4)cccc12` [Example 10941, 6-((1-(((1-aminoisoquinolin-5-yl)amino)methyl)-2-oxabicyclo[3.1.1]heptan-5-yl)methoxy)isoindolin-1-one], the IC50 is 300 to 1000 nM.

Turning to `Cn1ccc(OCC23CNC(CNc4ccc5c(N)nccc5c4)(C2)C3)cc1=O` [Example 12011, 4-((1-(((1-aminoisoquinolin-6-yl)amino)methyl)-2-azabicyclo[2.1.1]hexan-4-yl)methoxy)-1-methylpyridin-2(1H)-one], the IC50 lay within 300 to 1000 nM.

For `Cn1ccc(OCC23CN(C(=O)c4ccccc4)C(CNc4cccc5c(N)nccc45)(C2)C3)cc1=O` [Example 12035, 4-((1-(((1-aminoisoquinolin-5-yl)amino)methyl)-2-benzoyl-2-azabicyclo[2.1.1]hexan-4-yl)methoxy)-1-methylpyridin-2(1H)-one], the IC50 lay in the range of 10 to 100 nM.

Regarding `Cn1ccc(OCC23CC(CNc4cccc5c(N)nccc45)(CN2S(=O)(=O)CCc2ccccc2)C3)cc1=O` [Example 13014, 4-((4-(((1-aminoisoquinolin-5-yl)amino)methyl)-2-(phenethylsulfonyl)-2-azabicyclo[2.1.1]hexan-1-yl)methoxy)-1-methylpyridin-2(1H)-one], the IC50 is 100 to 300 nM.
